Source: the METLIN SMRT retention time set (Domingo-Almenara et al. 2019)

Assay: gradient 5% acetonitrile 3 min, to 50% in 2 min, to 85% in 15 min, held 3 min, 100 µL/min
Details: column: Zorbax Extend-C18 2.1 x 50 mm; eluents: water / acetonitrile, 0.1% formic acid
Summary of the method: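 Values are retention times taken from adduct peaks that software picked and an analyst inspected. The pure standards were run as mixtures of ~100 molecules on HPLC linked to a quadrupole time-of-flight mass spectrometer, in positive and negative ionization mode. A Zorbax Extend-C18 column (2.1 × 50 mm, 1.8 μm) was used at 100 μL/min with water and acetonitrile, each including 0.1% formic acid.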

Row | RP-LC retention time | SMILES
1 | 978 s | Cc1cccc(-c2noc(C3CC(=O)N(c4ccc5c(c4)OCO5)C3)n2)c1 (stereo not given)
2 | 1070 s | COc1ccc(Cl)cc1NC(=O)N1CCCC(C)(C(=O)NCc2ccccc2C)C1 (stereo not given)
3 | 599 s | Cn1cnc2c(C(=O)N3CCN(c4ccccn4)CC3)nn(-c3ccccc3)c2c1=O
4 | 721 s | Cc1cc2c(cc1S(=O)(=O)N1CCCC1C(=O)NCc1ccccc1)OCC(=O)N2 (stereo not given)
5 | 1150 s | O=c1c2cc(-c3ccc(F)cc3)nn2ccn1Cc1nc(-c2cccc(Br)c2)no1
6 | 812 s | COc1ccc(-c2nnc(COc3ccc(NC(=O)CNC(=O)Cc4ccccc4)cc3)o2)cc1
7 | 948 s | CCCn1ccc2sc(C)c(C(=O)NCc3cccc(C)c3)c2c1=O
8 | 905 s | COc1ccc(-c2ccnc3nc(-c4cccs4)nn23)c(F)c1
9 | 541 s | COc1ccc(OC)c(CNC(=O)c2cn3ccc(C)cc3n2)c1
10 | 751 s | COc1cc(NC(=O)NCCc2nc3cccnc3n2C2CCCCC2)cc(OC)c1
11 | 682 s | Cc1nc2c(-c3ccc(F)cc3)c(C)nn2c(C)c1CCC(=O)N1CCN(c2ccccn2)CC1
12 | 783 s | COc1ccc(C(=O)Nc2c(C(=O)Nc3ccccc3OC)oc3cccnc23)cc1
13 | 743 s | COc1cc2nc(C(=O)N3CCCCC3)cc(Nc3ccc(Br)cc3)c2cc1OC
14 | 747 s | CN1C(=O)c2cc(C(=O)NCc3cccc(F)c3)nn2CC1(C)C(=O)NCc1ccccc1 (stereo not given)
15 | 926 s | CC1CCN(S(=O)(=O)c2ccc3c(c2)CCCC(=O)N3CC(=O)NCc2ccc(F)cc2)CC1
16 | 1270 s | CCOc1ccc(NC(=O)c2c(O)c3cccnc3n(-c3ccccc3)c2=O)cc1
17 | 899 s | Cc1cccc(NC(=O)Cn2nc3c(Oc4cccc(Cl)c4)nccn3c2=O)c1

Row | RP-LC retention time | SMILES
18 | 755 s | CCOc1ccc(C(=O)NC2CCN(c3cc(-c4cccs4)[nH]n3)C2)cc1OCC (stereo not given)
19 | 1110 s | Cc1ccc(C(=O)NCc2nc(-c3ccc(-c4csc(C5CC5)n4)cc3)no2)cc1
20 | 790 s | COC(=O)C1=CN(c2ccc(F)cc2)c2ccccc2S1(=O)=O
21 | 899 s | O=C(CN1C(=O)CC(c2ccco2)Sc2ccccc21)Nc1ccccc1C(F)(F)F (stereo not given)
22 | 747 s | Cc1ccc(S(=O)(=O)N2CCC3(CC2)NCCN=C3NCc2ccccc2F)c(C)c1
23 | 950 s | COc1cc(Cl)ccc1C(=O)N1CCN(c2ccc(-c3nc(C)c(C)s3)cn2)CC1
24 | 661 s | COCCNc1c(-c2ccc(F)cc2)nc2sc(C(=O)NCc3ccccn3)c(C)n12
25 | 638 s | CC1(C(=O)NCc2ccccc2)Oc2cccnc2NC1=O (stereo not given)
26 | 734 s | CCOc1ccc(-n2nnc(C(=O)O)c2COC)cc1
27 | 846 s | CCC(CC)C(=O)Nc1nc(-c2ccc3c(c2)NC(=O)CO3)cs1
28 | 675 s | O=C(NCc1ccccc1F)c1cccc(-c2ccc(N3CCCC3)nc2)c1
29 | 783 s | COc1ccc(CCNc2ncnc3c2cnn3-c2ccccc2)cc1OC
30 | 816 s | CC(Oc1ccc(=O)n(-c2ccc(F)cc2)n1)C(=O)Nc1ccc(F)c(F)c1 (stereo not given)
31 | 906 s | c1ccc(OCc2nc(-c3cccc(-c4ccn[nH]4)c3)no2)cc1
32 | 802 s | O=C(c1ccoc1)N1CCCn2nc(-c3ccc(Cl)cc3)cc2C1
33 | 974 s | O=C(Cn1cccc1-c1nnc(C2CCC2)o1)Nc1cccc(Br)c1
34 | 1130 s | COc1ccc(Cl)cc1S(=O)(=O)N1CCC(c2noc(-c3ccccc3)n2)CC1

The next lines start with the compound.

Row | SMILES | RP-LC retention time
35 | Cc1oc(-c2[nH]ncc2C(=O)N(C)C)cc1S(=O)(=O)N1CCN(c2ccccc2)CC1 | 746 s
36 | Cn1c(CN2CCN(C(=O)NCc3ccco3)CC2)nc2cc(C(=O)N3CCCC3)ccc21 | 590 s
37 | NC(N)=NCCC[C@H](NC(=O)c1sccc1NS(=O)(=O)c1cccc2nsnc12)C(=O)O | 685 s
38 | CCN(CC)CCCC(C)Nc1nc(C)nc2cc(Cl)ccc12 (stereo not given) | 769 s
39 | CN1C(=O)c2cccn2CC1C(=O)N1CCCCC1 (stereo not given) | 614 s
40 | O=C1CCCN1Cc1nc(-c2ccc(F)c(Cl)c2)no1 | 853 s
41 | CC(C)n1c(=O)sc2cc(S(=O)(=O)N3CCC(C(=O)NC4CCCCCCC4)CC3)ccc21 | 1040 s
42 | CCc1c(C2CCN(C(=O)c3ccnn3C)CC2)noc1N | 596 s
43 | Cc1c(C2CCN(C(=O)c3ccc(Br)cc3)CC2)noc1N | 728 s
44 | CC1CCN(c2cc(-n3cnc(C(=O)N4CCN(c5ccccc5)CC4)c3)ncn2)CC1 | 1040 s
45 | CCCc1nc(-c2cc3cccc(C)c3nc2NCCc2ccc(S(N)(=O)=O)cc2)no1 | 1300 s
46 | Cc1ccc2cc(CCC(=O)N3CCN(c4ncccn4)CC3)c(=O)[nH]c2c1 | 670 s
47 | CCOc1cc(C(=O)NCC(=O)Nc2nc3ccccc3[nH]2)cc(OCC)c1OCC | 715 s
48 | COCc1nc2cccnc2n1C1CCN(C(=O)Nc2ccccc2Br)CC1 | 724 s
49 | Cc1ccc(CN2CCN(CC(=O)N3CCC4(CC3)OCCO4)C(=O)C2=O)cc1 | 653 s
50 | CCCC(=O)N1CC(c2nc(-c3cccnc3)no2)C2(CCOCC2)C1 (stereo not given) | 622 s

Row | SMILES | RP-LC retention time
51 | COc1cc2c(cc1OC)C(COc1cccc(C(F)(F)F)c1)NCC2 (stereo not given) | 586 s
52 | CCN(CC)CCOc1ccccc1/C=C/c1noc2ccccc12 | 724 s
53 | O=C(NCC1CCCO1)c1ccc2nc(CCc3ccccc3)oc2c1 (stereo not given) | 840 s
54 | O=C1COc2ccc(S(=O)(=O)N3CCC(C(=O)NCCc4ccccc4)CC3)cc2N1 | 740 s
55 | COc1cc2c(cc1OC)C(Nc1nc(-c3ccccc3)cs1)=NC(C)(C)C2 | 878 s
56 | O=C(NC1CC1)[C@@H]1C[C@H](Oc2ccccc2)CN1C(=O)C1(c2ccccc2)CC1 | 855 s
57 | O=C(Nc1cnn(-c2ncc(N3CCCCC3)cn2)c1)c1ccccn1 | 814 s
58 | COc1ccc(CN2CCC(C3CCNC3)CC2)c(Cl)c1OC (stereo not given) | 556 s
59 | c1ccc(-c2nc3nccc(-c4ccccc4)n3n2)cc1 | 907 s
60 | Cc1nn(CC(=O)NCCCN2CCOCC2)c(=O)c2nc(-c3ccccc3)sc12 | 615 s
61 | Cc1noc(C)c1S(=O)(=O)N1CCC(Cc2nc(-c3cccnc3)n[nH]2)C1 (stereo not given) | 624 s
62 | CCCNC(=O)N1C[C@@H]2C(=O)N(Cc3ccc4c(c3)OCO4)C(=O)[C@@H]2C1 | 708 s
63 | N#Cc1ccc(S(=O)(=O)N2CC(c3nc(CCOCC4CCOCC4)no3)C2)cc1 | 813 s
64 | COc1ccc(C2=NC3(CCN(C(C)C)CC3)NC(c3cccc(OC)c3O)C2)cc1OC (stereo not given) | 575 s
65 | CCc1cc2c(N3CCCC(C(=O)NCCCN4CCN(CC)CC4)C3)ncnc2s1 (stereo not given) | 579 s
